# Marks after values point to notes of the source that are not given here. Square brackets hold non-standard residues; d marks the D form. * marks the point of attachment. His(Trt) = N[C@@H](Cc1cn(C(c2ccccc2)(c2ccccc2)c2ccccc2)cn1)C(=O)O; Pbf = Cc1c(C)c(S(=O)(=O)*)c(C)c2c1OC(C)(C)C2; code Z = not defined here; Cbz = O=C(OCc1ccccc1)*; Boc = CC(C)(C)OC(=O)*; OtBu = CC(C)(C)O*; tBu = CC(C)(C)*
# Assays:
# Type in all cases: biochemical
# Alcalase CLEA [1] = target: T1, Alcalase CLEA (Bacillus licheniformis, UniProt P00780); test: Hydrolysis of tetrapeptide tert-butyl ester by Alcalase CLEA in NMP/buffer (Example 2); conditions: 0.05 mmol, 5 mg Alcalase CLEA, NMP/phosphate buffer pH 8 1:1, 40° C., 17 h
# T1 construct: purchased CLEA Technologies B. V., Delft, The Netherlands
# T1 sequence (P00780 106-379): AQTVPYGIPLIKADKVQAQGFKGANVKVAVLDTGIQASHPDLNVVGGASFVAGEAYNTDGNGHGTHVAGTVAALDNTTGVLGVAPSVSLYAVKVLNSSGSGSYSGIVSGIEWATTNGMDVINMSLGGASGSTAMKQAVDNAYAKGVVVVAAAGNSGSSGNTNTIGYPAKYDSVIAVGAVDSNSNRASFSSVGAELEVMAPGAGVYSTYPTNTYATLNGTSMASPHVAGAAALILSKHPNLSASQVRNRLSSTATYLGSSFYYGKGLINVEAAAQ
# Procedure: 0.05 mmol of Boc-Gly-Phe-Phe-Leu-OBu^t was dissolved in a thermostated mixture of 2.5 ml NMP and 2.5 ml phosphate buffer 0.1M pH 8. To this solution 5 mg of Alcalase CLEA were added. The reaction mixture was incubated at 40° C. for a total of 17 hours. Substrate conversion is determined by HPLC. The reaction resulted after 17 h in >95% yield of Boc-Gly-Phe-Phe-Leu-OH.
# Alcalase CLEA [2] = target: T1, Alcalase CLEA; test: Identification of peptide substrates susceptible to endopeptidic cleavage (Example 5)
# Procedure: General procedure Alcalase CLEA:
# 0.1 mmol of each of the tetrapeptides (or tetrapeptide mixtures) were dissolved in 2.5 ml DMF. To this solution 5 mg of enzyme were added along with 2.5 ml phosphate buffer 0.1 M pH 7 and were added to the previous solution. The reaction mixture was incubated at 40° C. Reaction mixtures were analysed after 2 hours and 6 hours by HPLC. In case the reaction had not reached completion additional portions of enzyme [5 mg each] were added at the end of six hours and overnight (approx. 24 hours of reaction). The last aliquot was analysed by LC/MS to verify the presence of the desired compound and of any impurities being Z-Val-Val-X-OH and/or H-X-Leu-OH.
# Subtilisin A [3] = target: T2, Subtilisin A (Bacillus licheniformis, UniProt P00780); test: Deprotection of model dipeptides by Subtilisin A (Example 3); conditions: 0.1 mmol, 5 mg enzyme, 50 v/v % DMF/phosphate buffer pH 7, 40° C., 6 hours
# T2 construct: purchased Novozymes
# T2 sequence (P00780 106-379): T1 sequence (P00780 106-379)
# Procedure: (§1) General Procedure Subtilisin A:
# 0.1 mmol of each of the peptides was dissolved in 2.5 ml DMF. 5 mg of enzyme were dissolved in 2.5 ml phosphate buffer 0.1 M pH 7 and were added to the peptide solution. The reaction mixture was incubated at 40° C. for a total of six hours. The reaction mixtures were analysed after 6 hours using HPLC and LC/MS.
# Alcalase CLEA [4] = target: T1, Alcalase CLEA; test: Deprotection of model dipeptides by Alcalase CLEA (Example 3); conditions: 0.1 mmol, 5 mg enzyme, 50 v/v % DMF/phosphate buffer pH 7, 40° C., 6 hours
# Excerpt: A person skilled in the art can easily identify suitable substrates, for instance by performing a simple test hydrolysis of a selected peptide comprising a C-terminal tert-butyl ester functionality under suitable conditions as described herein before and following conversion e.g. by HPLC techniques. It has been found by hydrolysis of model dipeptides of the general structure Z-Val-X-OBu^t in the presence of Alcalase CLEA and 50% v/v of DMF (see for details Example 3) that the reactivity for these model substrates comprising a C-terminal tert-butyl ester functionality can be divided into four categories:
# General Procedure Alcalase CLEA:
# 0.1 mmol of each of the peptides was dissolved in 2.5 ml DMF. To this solution 5 mg of enzyme were added along with 2.5 ml phosphate buffer 0.1M pH 7. The reaction mixture was incubated at 40° C. for a total of six hours. The reaction mixtures were analysed after 6 hours using HPLC and LC/MS.
# Subtilisin A [5] = target: T2, Subtilisin A; test: Optimization of the amount of enzyme (Example 4); conditions: 2 h
# Procedure: 0.1 mmol of each of the peptides was dissolved in 2.5 ml IDMF. Subtilisin A was dissolved in 2.5 ml phosphate buffer 0.1 M pH 7 and added to the peptide solution. The reaction mixture was incubated at 40° C. The reaction mixtures were sampled at the indicated reaction times and analysed by HPLC. When needed extra portions of enzyme were added at 2-hour intervals.
# Alcalase CLEA [6] = target: T1, Alcalase CLEA; test: Scaling up of the procedure (Example 6); conditions: 1 mmol, 3x25 mg Alcalase CLEA, 50% DMF, pH 7, 40° C., 6 days
# Procedure: To a stirred solution of 606 mg (1 mmol) Z-Val-Trp-Leu-OBu^t in 25 ml DMF 25 mg of Alcalase CLEA were added along with 25 ml of phosphate buffer 0.1 M pH 7. The mixture was stirred at 40° C. The reaction progress was monitored by HPLC. Extra portions of enzyme (25 mg of Alcalase CLEA each) were added after 24 hours and after 48 hours. After 6 days the reaction was stopped. The reaction mixture was acidified to pH 2 and DMF was evaporated. The product was extracted with ethyl acetate. The organic layer was dried using sodium sulphate, concentrated in vacuo and the final product precipitated from heptane.
# [7] = target: T3, subtilisin A (S. Carlsberg) (Bacillus licheniformis, UniProt P00780); test: Hydrolysis of C-terminal tert-butyl esters by free subtilisin A (Example 1); conditions: 0.1 mmol peptide, 5 mg enzyme, DMF/phosphate buffer 0.1 M 1:1, 40° C., 2 hours, HPLC
# T3 construct: purchased Sigma Aldrich
# T3 sequence (P00780 106-379): T1 sequence (P00780 106-379)
# Procedure: as §1
# 0.1 mmol of each of the peptides was dissolved in a thermostated mixture of 2.5 ml DMF and 2.5 ml phosphate buffer 0.1 M pH 7.5 mg of enzyme were added to the peptide solution. The reaction mixture was incubated at 40° C. for a total of two hours. The reaction mixtures were analysed after 2 hours using HPLC.
# [8] = 24 h, extra 5 mg enzyme after 6 h
# [9] = 48 h, extra 5 mg enzyme portions after 6 h and approx. 24 h
# [10] = 2 h, 5 mg Alcalase CLEA, 50% DMF, pH 7, 40° C.
substance,measurement,setting,value
Boc-Gly-Phe-Phe-Leu-OBu^t (Boc-GFFL-OtBu; SMILES CC(C)C[C@H](NC(=O)[C@H](Cc1ccccc1)NC(=O)[C@H](Cc1ccccc1)NC(=O)CNC(=O)OC(C)(C)C)C(=O)OC(C)(C)C),yield of Boc-Gly-Phe-Phe-Leu-OH (substrate conversion by HPLC),Alcalase CLEA [1],> 95%
"Z-Val-Val-Leu-Leu-OBu^t ({code Z}-VVLL-OtBu; reading uncertain; also: printed as Z-Val-Val-Leu-Leu-OBu^t) [model tetrapeptide Z-Val-Val-X-Leu-OBu^t, X=Leu, tested in mix A]",Ratio Desired Product vs. Substrate (% area),Alcalase CLEA [2]; 6 h,100/0 ^1)
Cbz-Val-Met-OtBu,"Product vs. Substrate (% area), Subtilisin A",Subtilisin A [3],100/0
"Z-Val-Val-Ser-Leu-OBu^t ({code Z}-VVSL-OtBu; reading uncertain; also: printed as Z-Val-Val-Ser-Leu-OBu^t) [model tetrapeptide Z-Val-Val-X-Leu-OBu^t, X=Ser, tested in mix A]",Ratio Desired Product vs. Substrate (% area),Alcalase CLEA [2]; 6 h,100/0 ^1)
Z-Val-Val-Met-Leu-OBu^t ({code Z}-VVML-OtBu; reading uncertain; also: printed as Z-Val-Val-Met-Leu-OBu^t),"Ratio endopeptidase Impurity vs. Desired Product (% area), impurity Z-Val-Val-X-OH",Alcalase CLEA [2]; 24 h,72/28 (Z-Val-Val-X-OH)
same,Ratio Desired Product vs. Substrate (% area),Alcalase CLEA [2]; [8],100/0
Cbz-Val-Ser-OtBu,"Product vs. Substrate (% area), Subtilisin A",Subtilisin A [3],100/0
Cbz-Val-Ile-OtBu,"Product vs. Substrate (% area), Alcalase CLEA",Alcalase CLEA [4],traces of product
same,"Product vs. Substrate (% area), Subtilisin A",Subtilisin A [3],0/100
Cbz-Val-Thr(tBu)-OtBu,"Product vs. Substrate (% area), Alcalase CLEA",Alcalase CLEA [4],0/100
same,"Product vs. Substrate (% area), Subtilisin A",Subtilisin A [3],0/100
"Z-Val-Val-Trp-Leu-OBu^t ({code Z}-VVWL-OtBu; reading uncertain; also: printed as Z-Val-Val-Trp-Leu-OBu^t) [model tetrapeptide Z-Val-Val-X-Leu-OBu^t, X=Trp, tested in mix D]","Ratio endopeptidase Impurity vs. Desired Product (% area), impurity H-X-Leu-OH",Alcalase CLEA [2]; 24 h,2/98 (H-X-Leu-OH)
same,"Ratio endopeptidase Impurity vs. Desired Product (% area), impurity H-X-Leu-OH",Alcalase CLEA [2]; 48 h,6/94 (H-X-Leu-OH)
"Z-Val-Val-Ala-Leu-OBu^t ({code Z}-VVAL-OtBu; reading uncertain; also: printed as Z-Val-Val-Ala-Leu-OBu^t) [model tetrapeptide Z-Val-Val-X-Leu-OBu^t, X=Ala, tested in mix A]",Ratio Desired Product vs. Substrate (% area),Alcalase CLEA [2]; 6 h,100/0 ^1)
Cbz-Val-Leu-OtBu,Product vs. Substrate (% area),Subtilisin A [5]; 2.5 mg enzyme,100/0
same,Product vs. Substrate (% area),Subtilisin A [5]; 5 mg enzyme,100/0
same,"Product vs. Substrate (% area), Alcalase CLEA",Alcalase CLEA [4],98/2
same,"Product vs. Substrate (% area), Subtilisin A",Subtilisin A [3],100/0
Cbz-VVRL-OtBu,Ratio Desired Product vs. Substrate (% area),Alcalase CLEA [2]; 6 h,100/0 ^1)
Cbz-VVK(Boc)L-OtBu,Ratio Desired Product vs. Substrate (% area),Alcalase CLEA [2]; [9],100/0
Cbz-VVW(Boc)L-OtBu,Ratio Desired Product vs. Substrate (% area),Alcalase CLEA [2]; [10],3/97
same,Ratio Desired Product vs. Substrate (% area),Alcalase CLEA [2]; [9],100/0
Cbz-VVR(Pbf)L-OtBu,"Ratio endopeptidase Impurity vs. Desired Product (% area), impurity H-X-Leu-OH",Alcalase CLEA [2]; 24 h,1/99 (H-X-Leu-OH)
same,Ratio Desired Product vs. Substrate (% area),Alcalase CLEA [2]; [9],100/0
Cbz-Val-[His(Trt)]-OtBu,"Product vs. Substrate (% area), Alcalase CLEA",Alcalase CLEA [4],0/100
same,"Product vs. Substrate (% area), Subtilisin A",Subtilisin A [3],0/100
Cbz-Val-Trp-Leu-OtBu,endopeptidase-related impurities in the final compound (HPLC and LC/MS),Alcalase CLEA [6],No endopeptidase-related impurities were identified
Cbz-VVE(OtBu)L-OtBu,Ratio Desired Product vs. Substrate (% area),Alcalase CLEA [2]; [9],100/0
"Z-Val-Val-Tyr-Leu-OBu^t ({code Z}-VVYL-OtBu; reading uncertain; also: printed as Z-Val-Val-Tyr-Leu-OBu^t) [model tetrapeptide Z-Val-Val-X-Leu-OBu^t, X=Tyr, tested in mix B]",Ratio Desired Product vs. Substrate (% area),Alcalase CLEA [2]; [9],100/0
Cbz-Val-Ala-OtBu,Product/Substrate (% area),[7],100/0
same,"Product vs. Substrate (% area), Alcalase CLEA",Alcalase CLEA [4],100/0
same,"Product vs. Substrate (% area), Subtilisin A",Subtilisin A [3],100/0
Cbz-Val-Asn-OtBu,"Product vs. Substrate (% area), Alcalase CLEA",Alcalase CLEA [4],100/0
"Z-Val-Val-Asn-Leu-OBu^t ({code Z}-VVNL-OtBu; reading uncertain; also: printed as Z-Val-Val-Asn-Leu-OBu^t) [model tetrapeptide Z-Val-Val-X-Leu-OBu^t, X=Asn, tested in mix B]",Ratio Desired Product vs. Substrate (% area),Alcalase CLEA [2]; [10],100/0
same,Ratio Desired Product vs. Substrate (% area),Alcalase CLEA [2]; 6 h,100/0
same,Ratio Desired Product vs. Substrate (% area),Alcalase CLEA [2]; [8],100/0
same,Ratio Desired Product vs. Substrate (% area),Alcalase CLEA [2]; [9],100/0
"Z-Val-Val-Phe-Leu-OBu^t ({code Z}-VVFL-OtBu; reading uncertain; also: printed as Z-Val-Val-Phe-Leu-OBu^t) [model tetrapeptide Z-Val-Val-X-Leu-OBu^t, X=Phe, tested in mix B]",Ratio Desired Product vs. Substrate (% area),Alcalase CLEA [2]; [10],23/77
same,Ratio Desired Product vs. Substrate (% area),Alcalase CLEA [2]; 6 h,81/19
same,Ratio Desired Product vs. Substrate (% area),Alcalase CLEA [2]; [9],100/0
Cbz-Val-Gln-OtBu,"Product vs. Substrate (% area), Alcalase CLEA",Alcalase CLEA [4],100/0
same,"Product vs. Substrate (% area), Subtilisin A",Subtilisin A [3],100/0
Cbz-VVVL-OtBu,Ratio Desired Product vs. Substrate (% area),Alcalase CLEA [2]; 6 h,100/0 ^1)
same,Ratio Desired Product vs. Substrate (% area),Alcalase CLEA [2]; [8],100/0 ^1)
same,Ratio Desired Product vs. Substrate (% area),Alcalase CLEA [2]; [9],100/0
Cbz-Val-Pro-OtBu,"Product vs. Substrate (% area), Alcalase CLEA",Alcalase CLEA [4],0/100
same,"Product vs. Substrate (% area), Subtilisin A",Subtilisin A [3],0/100
"Z-Val-Val-Gln-Leu-OBu^t ({code Z}-VVQL-OtBu; reading uncertain; also: printed as Z-Val-Val-Gln-Leu-OBu^t) [model tetrapeptide Z-Val-Val-X-Leu-OBu^t, X=Gln, tested in mix A]",Ratio Desired Product vs. Substrate (% area),Alcalase CLEA [2]; 6 h,100/0 ^1)

# Source: patent US20120231497A1, “SELECTIVE ENZYMATIC […] C-TERMINAL TERT-BUTYL ESTERS OF PEPTIDES” (N.V. Organon, priority 2006, published 2012)
